In US10858364B2, “Imidazopyrazine inhibitors of Bruton's tyrosine kinase” (Acerta Pharma B.V., priority 2016, dated 2020):

Assays:
CYP2C8 = CYP2C8 (Homo sapiens (Human), UniProt P10632); test: CYP inhibition, CYP2C8; type: in vitro ADME
CYP3A4/5 = test: CYP inhibition, CYP3A4/5; type: in vitro ADME
CYP3A4 = test: CYP induction, CYP3A4; type: in vitro ADME
[1] = Clinical pharmacokinetics of acalabrutinib and its major metabolite; type: in vivo, human
From the text: The compound of Formula (I) was identified as the major metabolite in plasma with a geometric mean exposure (AUC) approximately 2- to 3-fold higher than the exposure of acalabrutinib.
Acalabrutinib and the major metabolite form a covalent bond with a cysteine residue in the BTK active site, leading to inhibition of BTK enzymatic activity. Acalabrutinib binding with the cysteine residue occurs rapidly and irreversibly and provides high target occupancy at steady state.

CYP2B6 [2] = test: CYP induction, CYP2B6; type: in vitro ADME
CYP2C19 = CYP2C19 (Homo sapiens (Human), UniProt P33261); test: CYP inhibition, CYP2C19; type: in vitro ADME
Sequence of CYP2C19 (P33261 whole entry): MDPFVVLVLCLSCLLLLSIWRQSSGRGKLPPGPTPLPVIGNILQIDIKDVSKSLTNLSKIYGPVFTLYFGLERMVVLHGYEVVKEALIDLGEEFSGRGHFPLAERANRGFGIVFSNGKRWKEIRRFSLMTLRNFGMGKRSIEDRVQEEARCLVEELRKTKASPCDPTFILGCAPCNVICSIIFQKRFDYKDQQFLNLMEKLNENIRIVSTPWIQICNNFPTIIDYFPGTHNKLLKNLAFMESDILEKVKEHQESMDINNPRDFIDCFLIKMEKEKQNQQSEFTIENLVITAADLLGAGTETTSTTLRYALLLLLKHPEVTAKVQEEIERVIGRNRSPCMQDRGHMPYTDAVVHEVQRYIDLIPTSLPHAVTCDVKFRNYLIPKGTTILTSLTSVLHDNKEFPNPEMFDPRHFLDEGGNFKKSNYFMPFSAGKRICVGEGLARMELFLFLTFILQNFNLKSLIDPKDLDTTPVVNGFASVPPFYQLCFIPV

CYP2C9 = CYP2C9 (Homo sapiens (Human), UniProt P11712); test: CYP inhibition, CYP2C9; type: in vitro ADME
Sequence of CYP2C9 (P11712 whole entry): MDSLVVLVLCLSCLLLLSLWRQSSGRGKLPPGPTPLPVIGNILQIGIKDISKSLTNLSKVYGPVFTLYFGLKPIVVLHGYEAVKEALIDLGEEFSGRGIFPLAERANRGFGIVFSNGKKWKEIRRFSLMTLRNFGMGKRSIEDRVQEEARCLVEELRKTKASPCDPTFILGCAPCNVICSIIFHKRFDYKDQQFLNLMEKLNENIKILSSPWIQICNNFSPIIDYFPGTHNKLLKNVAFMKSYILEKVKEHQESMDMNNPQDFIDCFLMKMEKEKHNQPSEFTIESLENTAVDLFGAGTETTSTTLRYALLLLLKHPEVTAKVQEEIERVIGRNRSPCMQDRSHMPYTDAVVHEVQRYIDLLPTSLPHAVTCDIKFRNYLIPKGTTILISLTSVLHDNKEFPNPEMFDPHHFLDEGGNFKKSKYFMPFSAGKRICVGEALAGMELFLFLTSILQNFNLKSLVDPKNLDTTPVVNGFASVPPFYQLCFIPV

CYP1A2 [3] = target: CYP1A2 (Homo sapiens (Human), UniProt P05177)
Sequence of CYP1A2 (Homo sapiens (Human), UniProt P05177) (P05177 whole entry): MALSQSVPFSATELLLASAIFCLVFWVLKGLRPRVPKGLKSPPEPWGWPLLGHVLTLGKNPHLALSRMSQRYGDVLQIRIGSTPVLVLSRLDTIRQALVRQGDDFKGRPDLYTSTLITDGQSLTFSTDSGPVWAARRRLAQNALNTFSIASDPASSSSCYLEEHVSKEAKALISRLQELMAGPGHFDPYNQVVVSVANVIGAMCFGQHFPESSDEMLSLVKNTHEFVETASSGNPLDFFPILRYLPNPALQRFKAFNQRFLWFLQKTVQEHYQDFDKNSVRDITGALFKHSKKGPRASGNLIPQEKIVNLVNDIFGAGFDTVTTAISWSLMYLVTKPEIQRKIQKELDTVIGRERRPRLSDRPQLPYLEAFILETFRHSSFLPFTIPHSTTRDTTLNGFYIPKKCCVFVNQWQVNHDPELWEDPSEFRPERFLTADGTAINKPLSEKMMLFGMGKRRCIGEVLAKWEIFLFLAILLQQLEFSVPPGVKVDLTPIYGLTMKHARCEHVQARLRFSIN

CYP2B6 [4] = target: CYP2B6 (Homo sapiens (Human), UniProt P20813); test: CYP inhibition, CYP2B6; type: in vitro ADME
Sequence of CYP2B6 (Homo sapiens (Human), UniProt P20813) (P20813 whole entry): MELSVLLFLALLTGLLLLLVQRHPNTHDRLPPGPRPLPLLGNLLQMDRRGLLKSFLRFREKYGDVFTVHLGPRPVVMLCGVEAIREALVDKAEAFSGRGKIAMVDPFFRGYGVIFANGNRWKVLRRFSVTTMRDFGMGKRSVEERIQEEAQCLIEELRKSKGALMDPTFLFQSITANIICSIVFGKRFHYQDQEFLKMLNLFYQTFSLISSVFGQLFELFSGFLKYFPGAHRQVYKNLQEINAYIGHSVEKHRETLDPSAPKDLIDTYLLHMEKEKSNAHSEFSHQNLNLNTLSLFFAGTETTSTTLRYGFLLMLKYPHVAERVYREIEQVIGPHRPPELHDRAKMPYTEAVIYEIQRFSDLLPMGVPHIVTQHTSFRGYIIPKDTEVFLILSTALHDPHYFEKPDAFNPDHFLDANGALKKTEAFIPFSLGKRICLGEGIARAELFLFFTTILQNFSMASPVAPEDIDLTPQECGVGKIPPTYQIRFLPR

CYP1A2 [5] = test: CYP induction, CYP1A2; type: in vitro ADME
CYP2D6 = CYP2D6 (Homo sapiens (Human), UniProt P10635); test: CYP inhibition, CYP2D6; type: in vitro ADME
Sequence of CYP2D6 (P10635 whole entry): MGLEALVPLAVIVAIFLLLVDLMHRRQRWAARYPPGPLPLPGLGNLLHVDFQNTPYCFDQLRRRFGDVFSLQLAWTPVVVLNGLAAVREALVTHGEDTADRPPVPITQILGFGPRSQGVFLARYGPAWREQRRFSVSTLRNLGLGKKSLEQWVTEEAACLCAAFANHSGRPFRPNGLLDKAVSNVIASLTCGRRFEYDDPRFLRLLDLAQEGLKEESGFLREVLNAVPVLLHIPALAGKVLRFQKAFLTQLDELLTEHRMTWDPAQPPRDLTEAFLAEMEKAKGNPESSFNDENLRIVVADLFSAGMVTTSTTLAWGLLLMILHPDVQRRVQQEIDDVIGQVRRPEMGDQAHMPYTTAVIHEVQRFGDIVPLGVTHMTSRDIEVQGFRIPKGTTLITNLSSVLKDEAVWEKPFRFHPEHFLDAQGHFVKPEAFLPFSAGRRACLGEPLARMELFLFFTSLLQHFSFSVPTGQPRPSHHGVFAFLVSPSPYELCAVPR

CYP3A enzymes = test: In vitro metabolism studies; type: in vitro ADME

Sequence of CYP2C8 (P10632 whole entry): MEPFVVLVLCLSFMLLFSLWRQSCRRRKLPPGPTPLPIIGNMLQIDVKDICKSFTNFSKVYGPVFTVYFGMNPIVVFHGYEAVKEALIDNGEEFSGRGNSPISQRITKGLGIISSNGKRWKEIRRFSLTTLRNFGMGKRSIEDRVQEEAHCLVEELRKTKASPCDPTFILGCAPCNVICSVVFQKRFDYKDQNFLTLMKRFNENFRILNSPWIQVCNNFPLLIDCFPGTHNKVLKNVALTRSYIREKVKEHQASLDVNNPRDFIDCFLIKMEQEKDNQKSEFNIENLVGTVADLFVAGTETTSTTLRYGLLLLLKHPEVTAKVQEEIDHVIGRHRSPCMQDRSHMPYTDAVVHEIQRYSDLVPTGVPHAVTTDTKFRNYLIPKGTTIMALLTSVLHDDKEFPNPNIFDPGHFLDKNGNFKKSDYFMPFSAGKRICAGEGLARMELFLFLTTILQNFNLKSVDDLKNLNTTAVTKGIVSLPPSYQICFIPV

CYP2C8 inhibition (CYP2C8): weak inhibitor
CYP3A4/5 inhibition (CYP3A4/5): weak inhibitor
CYP3A4 induction (CYP3A4): weak inducer
half-life ([1]; human, in vivo, single oral dose of 100 mg acalabrutinib, read-out: median terminal elimination half-life (t½) (converted)): 54 min
mean apparent oral clearance (CL/F) ([1]; population pharmacokinetics analysis): 159 L/h
CYP2B6 induction (CYP2B6 [2]): weak inducer
CYP2C19 inhibition (CYP2C19): does not inhibit
CYP2C9 inhibition (CYP2C9): weak inhibitor
CYP1A2 inhibition (CYP1A2 [3]): does not inhibit
CYP2B6 inhibition (CYP2B6 [4]): does not inhibit
CYP1A2 induction (CYP1A2 [5]): weak inducer
CYP2D6 inhibition (CYP2D6): does not inhibit
SMILES: CC#CC(=O)N1CCC[C@H]1c1nc(-c2ccc(C(=O)Nc3ccccn3)cc2)c2c(N)nccn12 [acalabrutinib, reference compound]
metabolic route (CYP3A enzymes): predominantly metabolized by CYP3A enzymes
